Experimental data from US5821363A, “Antineoplastic use and pharmaceutical compositions containing them” (priority 1996, dated 1998).
Converted amounts (≈) assume the structure as drawn.

Key:
tubulin = conditions: 20° C.; compared with taxol
KB-V1 = assay: killing of multidrug resistant KB-V1 cells; format: cell-based
[1] = tested on: A2780 human ovarian carcinoma; assay: cytotoxicity in A2780 human ovarian carcinoma cells; format: cell-based; conditions: A2780 human ovarian carcinoma, Table II; read-out: A2780 (IC50 μg/ml)
[2] = tested on: L1210 mouse leukemia carcinoma cells; assay: cytotoxicity / inhibition of cell proliferation in L1210 leukemia cells; format: cell-based; conditions: L1210 leukemia, Table I, 50% inhibition of cell proliferation vs untreated control, read-out: L1210 (IC50 μg/ml)
KB-3-1 = assay: killing of drug sensitive (non-MDR) KB-3-1 cells; format: cell-based; conditions: Homo sapiens; KB-3-1 drug sensitive cells, Table III; read-out: KB-3-1 (IC50; nM)

Molecule | induction of tubulin polymerization in vitro (tubulin) | IC50 (KB-V1; Homo sapiens, KB-V1 multidrug resistant cells, Table III, read-out: KB-V1 (IC50; nM)) | Ratio: KBV-1/KB-3-1 (KB-V1; ratio of IC50 KB-V1 to IC50 KB-3-1) | average ratio (IC50 KB-V1/IC50 KB-3-1) (KB-V1; taxol and taxotere, average) | IC50 [1] | IC50 [2] | IC50 (KB-3-1)
7-deoxy-7β,8β-methano-taxol | able to induce tubulin polymerization in vitro at 20 °C in a manner very similar to taxol | – | – | – | – | – | –
CC(=O)O[C@@]12CO[C@@H]1C[C@H](O)[C@@]1(C)C(=O)[C@H](O)C3=C(C)[C@@H](OC(=O)[C@H](O)[C@@H](NC(=O)OC(C)(C)C)c4ccccc4)C[C@@](O)([C@@H](OC(=O)c4ccccc4)[C@H]21)C3(C)C [taxotere, reference compound] | – | 1700 nM | 7,570 | 7,570 | 0.001 to 0.0016 µg/mL (≈ 1.24 to 1.98 nM) | 0.004 µg/mL (≈ 4.95 nM) | 0.25 nM
